Experimental findings from patent US20170056367A1, “PHARMACEUTICAL COMPOSITIONS FOR INHIBITING THE OSTEOCLAST DIFFERENTIATION COMPRISING EUPATILIN” (OsteoNeuroGen CO., LTD, priority 2015, published 2017) are described below.

In data set [1] the test system is Osteoblasts differentiated from mesenchymal stem cells. The data set can be described thus: ALP activity of osteoblasts differentiated from mesenchymal stem cells. Type of data set: cell-based, mouse. Conditions: FIG. 9. On the procedure: Osteoblasts differentiated from mesenchymal stem cells were measured for ALP activity in the presence of eupatilin.
The subject of data set [2] is LPS-induced osteoporosis mouse models. The data set can be described thus: LPS-induced osteoporosis model. Type of data set: in vivo.
In data set [3] the test system is mouse bone marrow cells (MBMC). The data set can be described thus: Differentiation of mouse bone marrow cells (MBMC) into osteoclasts with M-CSF and RANKL. The data set is classed as cell-based. On the procedure:
Incubation with M-CSF (macrophage-colony stimulating factor) and RANK (receptor activator of NFκB) ligand (RANKL) induced mouse bone marrow cells (MBMC) to differentiate into osteoclasts during which eupatilin was used at various concentrations under monitoring.

The subject of data set [4] is Ovariectomized mice (OVX). The experiment in a line: Ovariectomized mice (OVX) model of menopausal osteoporosis. The data set is classed as in vivo, mouse. As to conditions: 50 μM eupatilin, FIG. 8.
For data set [5], the system named is TRAP, OSCAR, Integrin av, DC-STAMP, integrin b3, and OC-STAMP. The data set can be described thus: Osteoclast differentiation marker gene levels by real-time PCR. Type of data set: cell-based, mouse. Conditions: 50 μM eupatilin, MBMC differentiation, FIG. 2. On the procedure: During the differentiation of MBMC into osteoclasts in the presence of 50 μM eupatilin, the levels of osteoclast differentiation marker genes were measured by real-time PCR.

In data set [6] the test system is RANK-mediated NF-kB activation. The experiment in a line: NF-kB-luciferase assay. The data set is classed as cell-based. Conditions: FIG. 3D. On the procedure: Retroviral overexpression of catalytically active IKKb or Akt induced partial formation of TRP^+ osteoclasts (FIGS. 3B and 3C). An NF-kB-luciferase assay was conducted to examine whether the RANK-mediated NF-kB activation was modulated by eupatilin.

Data set [7] relates to mouse bone marrow cells (MBMC). The data set can be described thus: Cytotoxicity of eupatilin (FIG. 1D). Conditions: at the concentration (50 μM). The data set is classed as cell-based.
In another data set the test system is osteoclasts. The experiment in a line: RANKL-mediated bone resorption measured using dentin. The data set is classed as cell-based. On the procedure:
Effects of eupatilin on RANKL-mediated bone-resorption were measured using dentin.

For data set [8], the system named is human peripheral blood mononucleated cells (PBMC). The experiment in a line: Differentiation of human PBMC into osteoclasts. Type of data set: cell-based. Conditions: 50 μM, FIG. 5. The source says:
Effects of eupatilin on the differentiation of human PBMC into osteoclasts were observed.

In the next data set the test system is GSK3b. The data set can be described thus: Osteoclast formation upon overexpression of GSK3b. The data set is classed as cell-based. Conditions: FIGS. 4A and 4B.
In another data set the test system is IkB, Akt, and GSK3b. The experiment in a line: Phosphorylation of IkB, Akt and GSK3b during differentiation of MBMC into osteoclasts (gel electrophoresis). As to conditions: compared to control groups, FIG. 3A. Type of data set: cell-based, mouse.

Take `COc1ccc(-c2cc(=O)c3c(O)c(OC)c(O)cc3o2)cc1OC` [eupatilin, 5,7-dihydroxy-3,4,6-trimethoxyflavone]: the “reduction of the activity of osteoblasts (ALP activity)” value in data set [1] (50 μM) is given as 50%. Moreover, the “activity of osteoblasts (ALP activity)” value in data set [1] (up to 25 μM) is “did not influence”. In data set [2] (50 μM eupatilin, LPS intraperitoneally, FIG. 7A), the “LPS-induced osteoporosis (bone density by CT)” value is recorded as “significantly reduced”. In addition, the “H&E and TRAP staining” value in [2] (LPS model, bottom panel of FIG. 7) was “promote osteanagenesis and inhibit osteoclast differentiation”. Moreover, the bone density entry in data set [2] (LPS or LPS+ eupatilin, FIGS. 7B to 7E) was “improve bone density”. In addition, in data set [3] (50 μM eupatilin, M-CSF and RANKL, FIG. 1A), the osteoclast differentiation entry is listed as “completely suppressed”. Moreover, the “F-actin formation in MNCs (immunofluorescence)” value in [3] (FIG. 1C) is “significantly reduced”. The “formation of TRP^+ multinucleated osteoclasts (MNCs)” value in data set [3] (various concentrations, FIG. 1B) is “suppressed the formation of TRP^+ multinucleated osteoclasts (MNCs) in a dose-dependent manner”. Besides, in data set [4], the “bone density loss (CT)” value is recorded as “significantly reduced”. For the same compound, the “levels of the markers TRAP, OSCAR, Integrin av, DC-STAMP, integrin b3, and OC-STAMP” value in [5] is reported as “significantly reduced”. Further, in data set [6], the “RANK-mediated NF-kB activation” value is “inhibit”. For the same compound, the cytotoxicity entry in data set [7] is recorded as “no cytotoxicity”. Besides, the “expression of Pit” value in the data set with osteoclasts (dentin, FIG. 6B) is reported as “reduced”. The “expression of F-actin for the formation of osteoclast actin rings” value with osteoclasts (osteoclasts differentiated by RANK signaling, FIG. 6A) was “remarkably suppressed”. Besides, in the data set with osteoclasts (time-dependent manner, FIG. 6), the “expression of Cathepsin K” value is “significantly decreasing”. Also, in data set [8], the “expression of c-Fos, NFATc1, p-Akt, p-GSK3b, and p-IkB” value is “significantly reduce”; the “formation of TRP^+ osteoclasts” value is listed as “significantly reduce”. In addition, in the data set with GSK3b, the “MNCs in the presence of eupatilin upon overexpression of GSK3b” value is “a significant quantity of MNCs was observed”. For the same compound, the “phosphorylation levels of IkB, Akt, and GSK3b” value with IkB, Akt, and GSK3b was “significantly reduced”.
